From article PMC6129194 (Bioorganic & medicinal chemistry, 2018)

Columns and labels:
[1] = cited from earlier work
[2] = cited from earlier work; remark: listed apart in the source
MDCK-mdr1 cells = test: MDCK-mdr1 monolayer permeability assay; details: % transported apical to basal; 10 μM, 1 h, 37 °C, pH 7.4

| Compound | human liver microsome stability [1] | solubility in acidic media [2] | MDCK-mdr1 A to B (MDCK-mdr1 cells) [%] |
| --- | --- | --- | --- |
| CN1CCN(c2ncnc3c2nc(-c2ccccc2Cl)n3-c2ccc(Cl)cc2)CC1 [compound 5] | good | good | – |
| CC(C)CS(=O)(=O)N1CCN(c2ncnc3c2nc(-c2ccccc2Cl)n3-c2ccc(Cl)cc2)CC1 [compound 15, 8-(2-Chlorophenyl)-9-(4-chlorophenyl)-6-{4-[(2-methylpropyl)sulfonyl]piperazin-1-yl}-9H-purine] | – | – | < 1 |
| O=C(OCC1CCC1)N1CCN(c2ncnc3c2nc(-c2ccccc2Cl)n3-c2ccc(Cl)cc2)CC1 [compound 26, Cyclobutylmethyl 4-[8-(2-Chlorophenyl)-9-(4-chlorophenyl)-9H-purin-6-yl]piperazine-1-carboxylate] | – | – | < 1 |
| N=C(Nc1ccc(F)cc1)N1CCN(c2ncnc3c2nc(-c2ccccc2Cl)n3-c2ccc(Cl)cc2)CC1 [compound 28, 4-[8-(2-Chlorophenyl)-9-(4-chlorophenyl)-9H-purin-6-yl]-N-(4-fluorophenyl)piperazine-1-carboximidamide] | – | – | < 1 |
